Laboratory results: ChEMBL document CHEMBL1201861, “Genomics of Drug Sensitity in Cancer screening data, Wellcome Trust Sanger Institute”

How the values were obtained:
Assay in all cases: cells
Format in all cases: functional, cell-based, Homo sapiens
COLO-800 = system: COLO-800;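 also: growth inhibition of COLO-800 cells, read out with a cell viability assay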
Description: SANGER: Inhibition of human COLO-800 cell growth in a cell viability assay.

COR-L88 = system: COR-L88;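 also: growth inhibition of COR-L88 cells, read out with a cell viability assay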
Description: SANGER: Inhibition of human COR-L88 cell growth in a cell viability assay.

D-392MG = system: D-392MG
DEL = system: DEL;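 also: growth inhibition of the human DEL cell line, read out with a cell viability assay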
Description: SANGER: Inhibition of human DEL cell growth in a cell viability assay.

DOHH-2 = system: DOHH-2;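 also: growth inhibition of human DOHH-2 cells, read out with a cell viability assay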
Description: SANGER: Inhibition of human DOHH-2 cell growth in a cell viability assay.

ES5 = system: ES5;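 also: growth inhibition of human ES5 cells, read out by a cell viability assay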
Description: SANGER: Inhibition of human ES5 cell growth in a cell viability assay.

ES6 = system: ES6;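 also: growth inhibition of human ES6 cells, read out with a cell viability assay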
Description: SANGER: Inhibition of human ES6 cell growth in a cell viability assay.

ES7 = system: ES7;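 also: growth inhibition of cultured human ES7 cells, read out as cell viability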
Description: SANGER: Inhibition of human ES7 cell growth in a cell viability assay.

EW-13 = system: EW-13;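 also: growth inhibition of EW-13 cells, read out with a cell viability assay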
Description: SANGER: Inhibition of human EW-13 cell growth in a cell viability assay.

EOL1 = system: EOL1;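 also: growth inhibition of EoL-1 cells, read out by a cell viability assay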
Description: SANGER: Inhibition of human EoL-1-cell cell growth in a cell viability assay.

HC-1 = system: HC-1;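 also: growth inhibition of HC-1 cells measured by a cell viability assay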
Description: SANGER: Inhibition of human HC-1 cell growth in a cell viability assay.

HCC2218 = system: HCC2218;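 also: cell viability assay read-out, with IC50 given as the concentration that inhibits growth of the cell line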
Description: SANGER: Inhibition of human HCC2218 cell growth in a cell viability assay.

HCE-4 = system: HCE-4;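 also: cell viability assay measuring inhibition of growth in the human HCE-4 cell line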
Description: SANGER: Inhibition of human HCE-4 cell growth in a cell viability assay.

HDLM-2 = system: HDLM-2;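 also: cell viability assay measuring suppression of HDLM-2 proliferation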
Description: SANGER: Inhibition of human HDLM-2 cell growth in a cell viability assay.

HL-60 = system: HL-60;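 also: growth inhibition of human HL-60 cells, read out with a cell viability assay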
Description: SANGER: Inhibition of human HL-60 cell growth in a cell viability assay.

K562 = system: K562
Description: SANGER: Inhibition of human K-562 cell growth in a cell viability assay.

KS-1 = system: KS-1;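 also: growth inhibition of KS-1 cells, read out with a cell viability assay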
Description: SANGER: Inhibition of human KS-1 cell growth in a cell viability assay.

LAMA-84 = system: LAMA-84;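 also: growth inhibition of LAMA-84 cells, read out with a cell viability assay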
Description: SANGER: Inhibition of human LAMA-84 cell growth in a cell viability assay.

LB2518-MEL = system: LB2518-MEL;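 also: growth inhibition of human LB2518-MEL cells, measured with a cell viability assay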
Description: SANGER: Inhibition of human LB2518-MEL cell growth in a cell viability assay.

LB831-BLC = system: LB831-BLC;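 also: growth inhibition of LB831-BLC cells, read out with a cell viability assay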
Description: SANGER: Inhibition of human LB831-BLC cell growth in a cell viability assay.

Lu-65 = system: Lu-65;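 also: growth inhibition of Lu-65 cancer cells, read out by a cell viability assay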
Description: SANGER: Inhibition of human LU-65 cell growth in a cell viability assay.

LXF-289 cell line = system: LXF-289 cell line
Description: SANGER: Inhibition of human LXF-289 cell growth in a cell viability assay.

MLMA = system: MLMA;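 also: growth inhibition of MLMA cells (human), determined through a cell viability readout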
Description: SANGER: Inhibition of human MLMA cell growth in a cell viability assay.

MN-60 = system: MN-60;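 also: growth inhibition of the MN-60 cell line, determined with a cell viability assay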
Description: SANGER: Inhibition of human MN-60 cell growth in a cell viability assay.

MZ1-PC = system: MZ1-PC;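 also: cell viability assay measuring growth inhibition of human MZ1-PC cells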
Description: SANGER: Inhibition of human MZ1-PC cell growth in a cell viability assay.

NB13 = system: NB13;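 also: cell viability readout measuring growth inhibition of human NB13 cells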
Description: SANGER: Inhibition of human NB13 cell growth in a cell viability assay.

NB17 = system: NB17;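 also: growth inhibition of NB17 cells, read out with a cell viability assay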
Description: SANGER: Inhibition of human NB17 cell growth in a cell viability assay.

NB6 = system: NB6;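 also: growth inhibition of NB6 cells, read out by a cell viability assay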
Description: SANGER: Inhibition of human NB6 cell growth in a cell viability assay.

NCI-H1092 = system: NCI-H1092;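 also: cell growth inhibition measured with a cell viability assay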
Description: SANGER: Inhibition of human NCI-H1092 cell growth in a cell viability assay.

NCI-H1299 = system: NCI-H1299;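 also: growth inhibition of human NCI-H1299 cells, read out by a cell viability assay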
Description: SANGER: Inhibition of human NCI-H1299 cell growth in a cell viability assay.

NCI-H1395 = system: NCI-H1395;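 also: cell viability assay read-out quantifying reduced proliferation of human NCI-H1395 cells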
Description: SANGER: Inhibition of human NCI-H1395 cell growth in a cell viability assay.

NCI-H2126 = system: NCI-H2126;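 also: growth inhibition of the cancer cell line, determined with a cell viability readout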
Description: SANGER: Inhibition of human NCI-H2126 cell growth in a cell viability assay.

NKM-1 = system: NKM-1;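 also: growth inhibition of NKM-1 cells, read out with a cell viability assay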
Description: SANGER: Inhibition of human NKM-1 cell growth in a cell viability assay.

RKO = system: RKO;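 also: growth inhibition of human RKO cells, read out with a cell viability assay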
Description: SANGER: Inhibition of human RKO cell growth in a cell viability assay.

SBC-1 = system: SBC-1;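 also: cell viability assay measuring growth inhibition of the SBC-1 cell line, IC50 being the concentration that halves growth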
Description: SANGER: Inhibition of human SBC-1 cell growth in a cell viability assay.

SCH = system: SCH;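 also: growth inhibition of human SCH cells, read out in a cell viability assay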
Description: SANGER: Inhibition of human SCH cell growth in a cell viability assay.

SF-126 = system: SF-126;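 also: growth inhibition of human SF126 cells, read out with a cell viability assay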
Description: SANGER: Inhibition of human SF126 cell growth in a cell viability assay.

SJSA-1 = system: SJSA-1;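 also: growth inhibition of human SJSA-1 cells, read out through a cell viability measurement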
Description: SANGER: Inhibition of human SJSA-1 cell growth in a cell viability assay.

SK-N-DZ = system: SK-N-DZ;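 also: growth inhibition of the cancer cell line, read out through a viability assay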
Description: SANGER: Inhibition of human SK-N-DZ cell growth in a cell viability assay.

SK-PN-DW = system: SK-PN-DW;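 also: growth inhibition measured with a viability assay on these cells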
Description: SANGER: Inhibition of human SK-PN-DW cell growth in a cell viability assay.

SK-UT-1 = system: SK-UT-1;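 also: growth inhibition of SK-UT-1 cells, measured by a cell viability assay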
Description: SANGER: Inhibition of human SK-UT-1 cell growth in a cell viability assay.

697 = system: 697
Description: SANGER: Inhibition of human 697 cell growth in a cell viability assay.

A3-KAW = system: A3-KAW;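 also: growth inhibition of human A3-KAW cells, read out with a cell viability assay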
Description: SANGER: Inhibition of human A3-KAW cell growth in a cell viability assay.

ATN-1 = system: ATN-1;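 also: growth inhibition of human ATN-1 cells, read out with a cell viability assay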
Description: SANGER: Inhibition of human ATN-1 cell growth in a cell viability assay.

TE-12 = system: TE-12;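 also: growth inhibition of TE-12 cells, read out by a cell viability assay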
Description: SANGER: Inhibition of human TE-12 cell growth in a cell viability assay.

TE-5 = system: TE-5;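 also: inhibition of cell growth, read out by a cell viability assay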
Description: SANGER: Inhibition of human TE-5 cell growth in a cell viability assay.

TE-8 = system: TE-8;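 also: growth inhibition of TE-8 cells, measured with a cell viability readout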
Description: SANGER: Inhibition of human TE-8 cell growth in a cell viability assay.

U-266 = system: U-266
Description: SANGER: Inhibition of human U-266 cell growth in a cell viability assay.

For `CO[C@H]1C[C@@H]2CC[C@@H](C)[C@@](O)(O2)C(=O)C(=O)N2CCCC[C@H]2C(=O)O[C@H]([C@H](C)C[C@@H]2CC[C@@H](OC(=O)C(C)(CO)CO)[C@H](OC)C2)CC(=O)[C@H](C)/C=C(\C)[C@@H](O)[C@@H](OC)C(=O)[C@H](C)C[C@H](C)/C=C/C=C/C=C/1C` [TEMSIROLIMUS], the IC50 (COLO-800; Homo sapiens, COLO-800) was 0.129 µM, the IC50 (COR-L88; Homo sapiens, COR-L88) was > 0.2 µM and the IC50 (D-392MG; Homo sapiens, D-392MG) was > 0.2 µM. It also gave an IC50 (DEL; Homo sapiens, DEL) of 0.00546 µM, an IC50 (DOHH-2; Homo sapiens, DOHH-2) of 0.0168 µM and an IC50 (ES5; Homo sapiens, ES5) of 0.0614 µM. For the same compound, the IC50 (ES6; Homo sapiens, ES6) was > 0.2 µM, the IC50 (ES7; Homo sapiens, ES7) was 0.0859 µM and the IC50 (EW-13; Homo sapiens, EW-13) was 0.0145 µM. For the same compound, the IC50 (EOL1; Homo sapiens, EOL1) was 0.0161 µM, the IC50 (HC-1; Homo sapiens, HC-1) was 0.101 µM and the IC50 (HCC2218; Homo sapiens, HCC2218) was > 0.2 µM. For the same compound, the IC50 (HCE-4; Homo sapiens, HCE-4) was > 0.2 µM, the IC50 (HDLM-2; Homo sapiens, HDLM-2) was > 0.2 µM and the IC50 (HL-60; Homo sapiens, HL-60) was > 0.2 µM. The IC50 (K562; Homo sapiens, K562) was > 0.2 µM, the IC50 (KS-1; Homo sapiens, KS-1) was 0.0635 µM and the IC50 (LAMA-84; Homo sapiens, LAMA-84) was 0.00403 µM. The IC50 (LB2518-MEL; Homo sapiens, LB2518-MEL) was > 0.2 µM, the IC50 (LB831-BLC; Homo sapiens, LB831-BLC) was > 0.2 µM and the IC50 (Lu-65; Homo sapiens, Lu-65) was > 0.2 µM. It also gave an IC50 (LXF-289 cell line; Homo sapiens, LXF-289) of 0.148 µM, an IC50 (MLMA; Homo sapiens, MLMA) of 0.00331 µM and an IC50 (MN-60; Homo sapiens, MN-60) of 0.0193 µM. For the same compound, the IC50 (MZ1-PC; Homo sapiens, MZ1-PC) was > 0.2 µM, the IC50 (NB13; Homo sapiens, NB13) was > 0.2 µM and the IC50 (NB17; Homo sapiens, NB17) was > 0.2 µM. For the same compound, the IC50 (NB6; Homo sapiens, NB6) was > 0.2 µM, the IC50 (NCI-H1092; Homo sapiens, NCI-H1092) was > 0.2 µM and the IC50 (NCI-H1299; Homo sapiens, NCI-H1299) was 0.186 µM. For the same compound, the IC50 (NCI-H1395; Homo sapiens, NCI-H1395) was > 0.2 µM, the IC50 (NCI-H2126; Homo sapiens, NCI-H2126) was 0.058 µM and the IC50 (NKM-1; Homo sapiens, NKM-1) was 0.198 µM. The IC50 (RKO; Homo sapiens, RKO) was 0.135 µM, the IC50 (SBC-1; Homo sapiens, SBC-1) was 0.000444 µM and the IC50 (SCH; Homo sapiens, SCH) was > 0.2 µM. For the same compound, the IC50 (SF-126; Homo sapiens, SF-126) was 0.0229 µM, the IC50 (SJSA-1; Homo sapiens, SJSA-1) was 0.143 µM and the IC50 (SK-N-DZ; Homo sapiens, SK-N-DZ) was > 0.2 µM. The IC50 (SK-PN-DW; Homo sapiens, SK-PN-DW) was > 0.2 µM, the IC50 (SK-UT-1; Homo sapiens, SK-UT-1) was 0.0641 µM and the IC50 (697; Homo sapiens) was 0.0017 µM. The IC50 (A3-KAW; Homo sapiens, A3-KAW) was 0.0104 µM, the IC50 (ATN-1; Homo sapiens, ATN-1) was > 0.2 µM and the IC50 (TE-12; Homo sapiens, TE-12) was > 0.2 µM. For the same compound, the IC50 (TE-5; Homo sapiens, TE-5) was > 0.2 µM, the IC50 (TE-8; Homo sapiens, TE-8) was > 0.2 µM and the IC50 (U-266; Homo sapiens, U-266) was 0.151 µM.

CISPLATIN gave an IC50 (COLO-800; colo-800) of 20.1 µM, an IC50 (COR-L88; cor-l88) of 319 µM and an IC50 (D-392MG; d-392mg) of 11.9 µM. It also gave an IC50 (DEL; del) of 3.67 µM, an IC50 (DOHH-2; dohh-2) of 4.23 µM and an IC50 (ES5; es5) of 3.32 µM. The IC50 (ES6; es6) was 21.3 µM, the IC50 (ES7; es7) was 1.87 µM and the IC50 (EW-13; ew-13) was 4.17 µM. The IC50 (EOL1; eol1) was 38 µM, the IC50 (HC-1; hc-1) was 9.5 µM and the IC50 (HCC2218; hcc2218) was 398 µM. The IC50 (HCE-4; hce-4) was 9.36 µM, the IC50 (HDLM-2; hdlm-2) was 144 µM and the IC50 (HL-60; hl-60) was 8.69 µM. For the same compound, the IC50 (K562; k562) was 509 µM, the IC50 (KS-1; ks-1) was 28.3 µM and the IC50 (LAMA-84; lama-84) was 10.8 µM. For the same compound, the IC50 (LB2518-MEL; lb2518-mel) was 116 µM, the IC50 (LB831-BLC; lb831-blc) was 225 µM and the IC50 (Lu-65; lu-65) was 559 µM. For the same compound, the IC50 (LXF-289 cell line; lxf-289) was 52.7 µM, the IC50 (MLMA; mlma) was 19.2 µM and the IC50 (MN-60; mn-60) was 58.4 µM. For the same compound, the IC50 (MZ1-PC; mz1-pc) was 29.9 µM, the IC50 (NB13; nb13) was 40.1 µM and the IC50 (NB17; nb17) was 69.4 µM. For the same compound, the IC50 (NB6; nb6) was 318 µM, the IC50 (NCI-H1092; nci-h1092) was 15.4 µM and the IC50 (NCI-H1299; nci-h1299) was 26.8 µM. For the same compound, the IC50 (NCI-H1395; nci-h1395) was 43.4 µM, the IC50 (NCI-H2126; nci-h2126) was 221 µM and the IC50 (NKM-1; nkm-1) was 6.04 µM. The IC50 (RKO; rko) was 66.8 µM, the IC50 (SBC-1; sbc-1) was 141 µM and the IC50 (SCH; sch) was 13.2 µM. For the same compound, the IC50 (SF-126; sf-126) was 12.1 µM, the IC50 (SJSA-1; sjsa-1) was 23 µM and the IC50 (SK-N-DZ; sk-n-dz) was 26.8 µM. The IC50 (SK-PN-DW; sk-pn-dw) was 35 µM, the IC50 (SK-UT-1; sk-ut-1) was 12.9 µM and the IC50 697 was 1.89 µM. It also gave an IC50 (A3-KAW; a3-kaw) of 164 µM, an IC50 (ATN-1; atn-1) of 18.6 µM and an IC50 (TE-12; te-12) of 42.6 µM. For the same compound, the IC50 (TE-5; te-5) was 211 µM, the IC50 (TE-8; te-8) was 16.5 µM and the IC50 (U-266; u-266) was 154 µM.
